The record followed here is patent US7541367B2, “3-benzoimidazolyl-pyrazolopyridines useful in treating kinase disorders” (Janssen Pharmaceutica, N.V., priority 2005, dated 2009).

Molecules are shown by their SMILES.

Test [1] deals with A375 malignant melanoma. Put plainly: Cell Proliferation Inhibition Assay (14C-thymidine incorporation), A375.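 Also: proliferation measured by radiolabelled thymidine uptake into new DNA, counted in scintillating 96-well plates, compound-treated wells compared with DMSO-only control wells.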 Type of test: cell-based. As to conditions: Homo sapiens, A-375, A375 cells. In general terms: Incorporation of labelled thymidine or its analogues reports DNA synthesis.
The target of test [2] is T1, VEGF-R2 (Rattus norvegicus, UniProt O08775).
T1 construct: polyhistidine (N)
T1 sequence (O08775 786-1343): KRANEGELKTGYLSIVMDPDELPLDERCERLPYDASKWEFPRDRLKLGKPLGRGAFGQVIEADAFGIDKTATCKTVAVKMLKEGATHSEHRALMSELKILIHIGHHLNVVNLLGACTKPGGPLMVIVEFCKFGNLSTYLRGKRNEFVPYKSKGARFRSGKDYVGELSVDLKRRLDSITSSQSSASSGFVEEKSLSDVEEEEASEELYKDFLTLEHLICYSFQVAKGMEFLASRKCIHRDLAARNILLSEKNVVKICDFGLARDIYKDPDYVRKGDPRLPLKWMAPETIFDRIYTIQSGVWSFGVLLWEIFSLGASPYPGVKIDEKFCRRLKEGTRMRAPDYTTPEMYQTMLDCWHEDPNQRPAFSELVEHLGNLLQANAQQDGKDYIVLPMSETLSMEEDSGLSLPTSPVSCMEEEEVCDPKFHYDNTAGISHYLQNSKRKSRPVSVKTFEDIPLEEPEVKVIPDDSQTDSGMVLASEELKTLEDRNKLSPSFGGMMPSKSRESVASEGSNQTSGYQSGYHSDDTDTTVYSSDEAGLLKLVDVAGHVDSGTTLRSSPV
Put plainly: VEGF-R2 kinase screening assay (33P-ATP FlashPlate).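 Also: Read-out is ³³P incorporation from ³³P-γ-ATP into biotinylated peptide substrate captured on streptavidin FlashPlate, counted by scintillation, 1% DMSO final, inhibition scaled between per-plate maximum and minimum signals.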 Type of test: biochemical. The note with it: rat VEGF-R2 kinase domain; 10 μM ATP; 1 hr at 30° C.

The target of test [3] is T2, Aurora-A (Mus musculus, UniProt P97477).
T2 construct: polyhistidine (N)
T2 sequence (P97477 1-395): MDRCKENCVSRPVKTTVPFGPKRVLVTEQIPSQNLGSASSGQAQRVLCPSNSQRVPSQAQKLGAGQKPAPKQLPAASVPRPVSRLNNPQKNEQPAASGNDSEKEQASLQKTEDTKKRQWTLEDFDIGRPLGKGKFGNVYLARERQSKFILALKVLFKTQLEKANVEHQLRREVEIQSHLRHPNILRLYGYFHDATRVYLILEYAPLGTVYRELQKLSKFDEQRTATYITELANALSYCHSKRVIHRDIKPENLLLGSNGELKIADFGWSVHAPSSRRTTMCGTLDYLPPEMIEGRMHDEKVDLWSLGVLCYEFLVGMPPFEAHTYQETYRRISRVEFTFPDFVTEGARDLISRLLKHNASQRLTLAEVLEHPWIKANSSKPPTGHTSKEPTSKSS
Put plainly: Aurora-A kinase screening assay (33P-ATP FlashPlate).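 Also: His-tagged mouse Aurora-A phosphorylating a biotinylated peptide captured on streptavidin plates, read as 33P uptake by scintillation counting, 1% DMSO, inhibition scaled between per-plate maximum and minimum signals.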 Format: biochemical. As to conditions: 10 μM ATP, 1 hr at 30° C.

Test [4] deals with HCT-116 colon carcinoma. Put plainly: Cell Proliferation Inhibition Assay (14C-thymidine incorporation), HCT-116.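 Also: proliferation measured as methyl 14C-thymidine uptake into new DNA, counted in 96-well scintillating microplates, compared with DMSO-only control wells.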 Type of test: cell-based. The note with it: Homo sapiens.
For test [5], the target named is T3, CDK1 (Homo sapiens, UniProt P06493).
T3 construct: purchased New England Biolabs, Beverly, Mass; 6020; host or cells: insect cells
T3 sequence (P06493 whole entry): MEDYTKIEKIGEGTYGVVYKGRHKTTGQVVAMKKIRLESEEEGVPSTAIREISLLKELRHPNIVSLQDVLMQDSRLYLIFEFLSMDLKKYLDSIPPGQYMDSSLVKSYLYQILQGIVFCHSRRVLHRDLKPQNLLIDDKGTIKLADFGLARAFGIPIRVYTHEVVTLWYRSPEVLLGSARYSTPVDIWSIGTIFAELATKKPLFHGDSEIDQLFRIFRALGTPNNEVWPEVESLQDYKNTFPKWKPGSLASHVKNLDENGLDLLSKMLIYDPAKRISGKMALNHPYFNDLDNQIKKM
T3 sequence (P14635 whole entry partner): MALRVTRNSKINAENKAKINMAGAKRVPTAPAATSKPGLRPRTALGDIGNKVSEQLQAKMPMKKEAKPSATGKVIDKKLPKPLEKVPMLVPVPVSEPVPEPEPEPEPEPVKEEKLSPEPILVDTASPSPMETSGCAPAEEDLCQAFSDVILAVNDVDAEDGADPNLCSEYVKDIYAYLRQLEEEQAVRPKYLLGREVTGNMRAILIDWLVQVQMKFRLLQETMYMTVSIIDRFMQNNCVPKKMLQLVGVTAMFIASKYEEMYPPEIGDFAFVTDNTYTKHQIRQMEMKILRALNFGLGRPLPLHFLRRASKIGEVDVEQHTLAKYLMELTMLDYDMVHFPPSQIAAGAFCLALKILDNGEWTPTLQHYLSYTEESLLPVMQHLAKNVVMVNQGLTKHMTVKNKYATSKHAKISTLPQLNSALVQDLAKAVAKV
Put plainly: CDK-1 kinase screening assay (33P-ATP FlashPlate). The note with it: human CDK1 with cyclin B; 10 μM ATP; 1 hr at 30° C. Type of test: biochemical. As to the method: A kinase reaction mixture was prepared containing 50 mM Tris-HCl pH=8, 10 mM MgCl2, 0.1 mM […], 1 mM DTT, 10 μM ATP, 0.025 μM biotinylated histone-H1 peptide substrate and 0.2 μCuries per well ^33P-γ-ATP (2000-3000 Ci/mmol). 70 μL of the kinase reaction mixture was dispensed into the well of a streptavidin coated FlashPlate™ (Cat. # SMP103, NEN, Boston, Mass.).
Test compound stock in 100% DMSO (1 μL) was added to the wells resulting in a final concentration of 1% DMSO in the reaction with a 100 μL final reaction volume. Each enzyme was diluted in 50 mM Tris-HCl pH=8.0, 0.11% BSA and 30 μL was added to each well to initiate the reaction. The reaction was incubated for one hour at 30° C. At the end of the 1 hr incubation, the reaction was terminated by aspirating the mixture from the plate and washing the wells twice with PBS containing 100 mM EDTA. The biotinylated peptide substrate became immobilized on the Flashplate™ and the incorporation of ^33P-γ-ATP was measured by reading the plate on a scintillation counter. Inhibition of the enzymatic activity was measured by observing a reduced amount of ^33P-γ-ATP incorporated into the immobilized peptide.
The CDK1 enzyme was isolated from insect cells expressing both the human CDK1 catalytic subunit (Accession number NM_001786) and its positive regulatory subunit cyclin B (New England Biolabs, Beverly, Mass.; Cat. # 6020). The assay used 30 ng of the N-terminal biotinylated peptide biotin-[…]-amide (Cyclin dependent kinase 1) per well.
A maximum and minimum signal for the assay was determined on each plate. The percent inhibition of a test compound was calculated according to the formula: […]
For a series of test concentrations, the IC50 was derived by graphing percent inhibition against the log of the concentrations tested for a given compound with results shown in Table 1.
For compounds with multiple values, each value represents a separate assay result.

In test [6] the target is T4, HER2 (Homo sapiens, UniProt P04626).
T4 construct: GST (Glutathione-S-Transferase) (N); HIS6 (N); thrombin cleavage site (N); purchased Proqinase, Freiburg, Germany
T4 sequence (P04626 679-1255): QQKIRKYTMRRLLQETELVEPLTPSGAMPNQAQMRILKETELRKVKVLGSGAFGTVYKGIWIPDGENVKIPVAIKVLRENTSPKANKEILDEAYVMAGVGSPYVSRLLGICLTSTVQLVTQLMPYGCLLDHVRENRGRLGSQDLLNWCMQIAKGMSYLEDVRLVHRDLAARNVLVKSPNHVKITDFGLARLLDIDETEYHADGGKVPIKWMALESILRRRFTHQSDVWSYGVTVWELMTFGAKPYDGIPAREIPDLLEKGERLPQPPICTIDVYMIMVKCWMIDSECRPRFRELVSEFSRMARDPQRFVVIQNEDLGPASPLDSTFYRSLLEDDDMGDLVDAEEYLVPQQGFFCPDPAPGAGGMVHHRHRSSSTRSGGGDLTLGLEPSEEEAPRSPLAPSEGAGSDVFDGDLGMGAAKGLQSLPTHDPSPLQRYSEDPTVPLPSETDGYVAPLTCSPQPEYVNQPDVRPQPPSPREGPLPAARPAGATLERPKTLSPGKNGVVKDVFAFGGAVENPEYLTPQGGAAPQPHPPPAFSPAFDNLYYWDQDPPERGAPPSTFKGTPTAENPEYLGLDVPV
Description: HER2 kinase screening assay (33P-ATP FlashPlate).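 Also: Biotin-poly(GT) 4:1 peptide captured on streptavidin FlashPlate, 33P transfer from γ-ATP read by scintillation counting, lower incorporation means inhibition, 1% DMSO final, 100 µL reaction.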 Type of test: biochemical. The note with it: GST-HIS6 HER-2 aa 679 to 1255; 10 μM ATP; 1 hr at 30° C.

Test [7] deals with HeLa cervical adenocarcinoma. Description: Cell Proliferation Inhibition Assay (14C-thymidine incorporation), HeLa.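 Also: test compound in DMSO added to cells seeded in scintillating 96-well plates, DMSO-only wells as control, uptake of methyl 14C-thymidine into new DNA counted.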 Format: cell-based. As to conditions: Homo sapiens, HeLa cells.

As to `CCN(CC)C(=O)c1cccc2[nH]c(-c3n[nH]c4ncc(-c5cncc6ccccc56)cc34)nc12` [Cpd 19, 2-(5-isoquinolin-4-yl-1H-pyrazolo[3,4-b]pyridin-3-yl)-1H-benzoimidazole-4-carboxylic acid diethylamide], the IC50 (in general, the midpoint of a concentration-inhibition curve) was 1570 nM in test [1]; roughly 10000 nM in test [2]; greater than 1000 nM in test [3]; 1830 nM in test [4] (HCT-116, HCT-116 cells); 53.4 nM in test [5]; roughly 100000 nM in test [6]. This compound also gave an IC50 in test [7] (HeLa) of 975 nM.

Take `COCc1cccc2[nH]c(-c3n[nH]c4ncc(Br)cc34)nc12` [Cpd 11, 5-bromo-3-(4-methoxymethyl-1H-benzoimidazol-2-yl)-1H-pyrazolo[3,4-b]pyridine]: the half-inhibitory concentration (IC50) in test [1] was 866 nM; in test [2], 916 nM; in test [3], roughly 10000 nM; in test [4] (HCT-116, HCT-116 cells), 866 nM; in test [5], 358 nM; in test [7] (HeLa), 1840 nM.

Regarding `Cc1cccc2[nH]c(-c3n[nH]c4ncc(-c5cncc6ccccc56)cc34)nc12` [Cpd 2, 4-[3-(4-methyl-1H-benzoimidazol-2-yl)-1H-pyrazolo[3,4-b]pyridin-5-yl]-isoquinoline], the IC50 in test [1] is 1720 nM; in test [4] (HCT-116, HCT-116 cells), 1640 nM; in test [5] it was 96.7 nM; in test [7] (HeLa), 3090 nM.

Take `COCc1cccc2[nH]c(-c3n[nH]c4ncc(-c5c[nH]c6ncccc56)cc34)nc12` [Cpd 37, 3-(4-methoxymethyl-1H-benzoimidazol-2-yl)-5-(1H-pyrrolo[2,3-b]pyridin-3-yl)-1H-pyrazolo[3,4-b]pyridine]: the half-inhibitory concentration (IC50) is 20.1 nM in test [1]; greater than 10 nM in test [2]; 191 nM in test [3]; 5 nM in test [4] (HCT-116, HCT-116 cells); 87.5 nM in test [5]; greater than 100000 nM in test [6]. The same compound registered an IC50 in test [7] (HeLa) of 1840 nM.

On to `CC(C)(C)NC(=O)c1cccc2[nH]c(-c3n[nH]c4ncc(-c5cncc6ccccc56)cc34)nc12` [Cpd 20, 2-(5-isoquinolin-4-yl-1H-pyrazolo[3,4-b]pyridin-3-yl)-1H-benzoimidazole-4-carboxylic acid tert-butylamide], for which the half-maximal inhibitory concentration (IC50) in test [1] is 71.1 nM; in test [2], roughly 10000 nM; in test [3], roughly 1000 nM; in test [4] (HCT-116, HCT-116 cells), 55 nM; in test [5], 28.6 nM; in test [6], greater than 10000 nM. Also, half-maximal inhibition in test [7] (HeLa) (IC50) required 167 nM.

Take `CCCNCc1cncc(-c2cnc3[nH]nc(-c4nc5cc(OC)ccc5[nH]4)c3c2)c1` [Cpd 103, {5-[3-(5-methoxy-1H-benzoimidazol-2-yl)-1H-pyrazolo[3,4-b]pyridin-5-yl]-pyridin-3-ylmethyl}-propyl-amine]: the IC50 in test [1] turned out to be 39.2 nM; in test [2] it was 47.6 nM; in test [3] it was 270 nM; in test [4] (HCT-116 cells), 33.5 nM; in test [5], 0.4 nM; in test [6] it was 2160 nM. The compound further displayed an IC50 in test [7] of 62.3 nM.

As for `CCNCc1cncc(-c2cnc3[nH]nc(-c4nc5c(COC)cccc5[nH]4)c3c2)c1C` [Cpd 59, ethyl-{5-[3-(4-methoxymethyl-1H-benzoimidazol-2-yl)-1H-pyrazolo[3,4-b]pyridin-5-yl]-4-methyl-pyridin-3-ylmethyl}-amine], the IC50 in test [2] is 4670 nM; in test [3], 8020 nM; in test [5], 106 nM.

On to `CCN(CC)Cc1cccc2[nH]c(-c3n[nH]c4ncc(-c5cncc6ccccc56)cc34)nc12` [Cpd 5, diethyl-[2-(5-isoquinolin-4-yl-1H-pyrazolo[3,4-b]pyridin-3-yl)-1H-benzoimidazol-4-ylmethyl]-amine], for which the half-maximal inhibitory concentration (IC50) came out at 46.7 nM in test [1]; 1550 nM in test [2]; 30.6 nM in test [4] (HCT-116, HCT-116 cells); 28.9 nM in test [7] (HeLa).

As for `CN1CCN(c2ccc3[nH]c(-c4n[nH]c5ncc(-c6cncc(CN7CCCC7)c6)cc45)nc3c2)CC1` [Cpd 87, 3-[5-(4-methyl-piperazin-1-yl)-1H-benzoimidazol-2-yl]-5-(5-pyrrolidin-1-ylmethyl-pyridin-3-yl)-1H-pyrazolo[3,4-b]pyridine], the IC50 is 807 nM in test [1]; 113 nM in test [2]; 445 nM in test [3]; 1050 nM in test [4] (HCT-116, HCT-116 cells); 29.3 nM in test [5]; 12100 nM in test [6]. For the same compound, in test [7] (HeLa), the IC50 was 2150 nM.

On to `COCc1cccc2[nH]c(-c3n[nH]c4ncc(-c5cccnc5)cc34)nc12` [Cpd 35, 3-(4-methoxymethyl-1H-benzoimidazol-2-yl)-5-pyridin-3-yl-1H-pyrazolo[3,4-b]pyridine], for which the IC50 is 32.8 nM in test [1]; 160 nM in test [2]; greater than 1000 nM in test [3]; 18.8 nM in test [4] (HCT-116, HCT-116 cells); 29.3 nM in test [5]; greater than 100000 nM in test [6]. This compound also displayed an IC50 in test [7] (HeLa) of 650 nM.

For the compound `CNCc1cncc(-c2cnc3[nH]nc(-c4nc5cc6c(cc5[nH]4)OC(F)(F)O6)c3c2)c1` [Cpd 100, {5-[3-(2,2-difluoro-5H-[1,3]dioxolo[4′,5′:4,5]benzo[1,2-d]imidazol-6-yl)-1H-pyrazolo[3,4-b]pyridin-5-yl]-pyridin-3-ylmethyl}-methyl-amine], the IC50 in test [1] is 52.5 nM; in test [2], roughly 100 nM; in test [3] it was roughly 10000 nM; in test [4] (HCT-116, HCT-116 cells), 237 nM; in test [5] it was 1.6 nM; in test [6], 7060 nM. Further, the IC50 in test [7] (HeLa) came out at 55.1 nM.

Turning to `COC(=O)c1ccc2[nH]c(-c3n[nH]c4ncc(-c5cccnc5)cc34)nc2c1` [Cpd 91, 2-(5-pyridin-3-yl-1H-pyrazolo[3,4-b]pyridin-3-yl)-3H-benzoimidazole-5-carboxylic acid methyl ester], the concentration for half-maximal inhibition (IC50) in test [1] was found to be 428 nM; in test [4] (HCT-116, HCT-116 cells), 386 nM; in test [5] it was 11.2 nM; in test [7] (HeLa) it was 826 nM.

In the case of `CN1CCN(c2ccc3[nH]c(-c4n[nH]c5ncc(Br)cc45)nc3c2)CC1` [Cpd 30, 5-bromo-3-[5-(4-methyl-piperazin-1-yl)-1H-benzoimidazol-2-yl]-1H-pyrazolo[3,4-b]pyridine], the IC50 is 1700 nM in test [1]; 238 nM in test [2]; roughly 1000 nM in test [3]; 2500 nM in test [4] (HCT-116, HCT-116 cells); 425 nM in test [5]; greater than 10000 nM in test [6]. Further, half-maximal inhibition in test [7] (HeLa) (IC50) required 3100 nM.

As for `c1ccc2c(-c3cnc4[nH]nc(-c5nc6ccccc6[nH]5)c4c3)cncc2c1` [Cpd 1, 4-[3-(1H-benzoimidazol-2-yl)-1H-pyrazolo[3,4-b]pyridin-5-yl]-isoquinoline], the results for the IC50 in test [2], in test [5] and in test [6] were 1460 nM, 23.3 nM and 141 nM, respectively.

`COC(=O)c1cccc2[nH]c(-c3n[nH]c4ncc(-c5cccnc5)cc34)nc12` [Cpd 93, 2-(5-pyridin-3-yl-1H-pyrazolo[3,4-b]pyridin-3-yl)-1H-benzoimidazole-4-carboxylic acid methyl ester]: the IC50 in test [1] is no less than 100000 nM; in test [4] (HCT-116, HCT-116 cells), no less than 100000 nM; in test [7] (HeLa) it was no less than 100000 nM.
